Source: patent US20230295130A1, “COMPOUND USEFUL AS CDK7 KINASE INHIBITOR AND USE THEREOF” (TYK MEDICINES, INC., priority 2020, published 2023)
pIC50: −log10 of the molar value.

Legend:
Experiment in all cases: Enzyme activity test, mobility shift assay (Table 1)
Assay type in all cases: biochemical
[1] = target: CDK7/Cyclin H/MAT1 kinase (Homo sapiens (Human), UniProt P50613); conditions: 2 mM ATP; pre-incubated 0 and 60 minutes
Experimental: IC50 values of the compounds for CDK7 kinase were detected in Wuxi Biortus Biosciences Co. Ltd.
(§1) The compound powder was dissolved in 100% DMSO to prepare a 10 mM storage solution. The storage solution was further diluted to 0.5 mM as the initial concentration, and continuously diluted 3 times to obtain 10 compound solutions with different concentrations. The compound and enzyme were pre-incubated for 0 minutes and 60 minutes, respectively, using duplicate detection.
(§2) was used as a positive control, and Mobility shift assay method was used to detect CDK kinase (such as CDK7, CDK9, CDK12 and CDK2) activity of the compounds.

CDK2/Cyclin El = CDK2/Cyclin El (Homo sapiens (Human), UniProt P24941); conditions: 2 mM ATP; read-out: CDK2 kinase IC50
Experimental: as §1, §2

CDK9/Cyclin Tl = CDK9/Cyclin Tl (Homo sapiens (Human), UniProt P50750); conditions: 2 mM ATP; read-out: CDK9 kinase IC50
Experimental: as §1, §2

[2] = target: CDK12 (aa686-1082)/Cyclin K (Homo sapiens (Human), UniProt Q9NYV4); conditions: 2 mM ATP; read-out: CDK12 kinase IC50
Experimental: as §1, with “detection. Compound Staurosporine having a structural formula of” for “detection.”
as §2

CDK9/Cyclin Tl, sequence (P50750 whole entry): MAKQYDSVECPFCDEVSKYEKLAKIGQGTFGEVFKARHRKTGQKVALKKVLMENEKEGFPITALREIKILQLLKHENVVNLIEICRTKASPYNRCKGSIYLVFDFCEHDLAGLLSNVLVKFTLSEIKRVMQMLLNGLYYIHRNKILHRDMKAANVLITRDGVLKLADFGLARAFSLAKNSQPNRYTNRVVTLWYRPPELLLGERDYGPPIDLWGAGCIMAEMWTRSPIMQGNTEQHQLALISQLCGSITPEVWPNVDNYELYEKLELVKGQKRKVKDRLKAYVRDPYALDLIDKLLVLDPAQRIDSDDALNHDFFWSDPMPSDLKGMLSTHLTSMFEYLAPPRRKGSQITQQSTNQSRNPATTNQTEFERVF
CDK9/Cyclin Tl, sequence (O60563 whole entry partner): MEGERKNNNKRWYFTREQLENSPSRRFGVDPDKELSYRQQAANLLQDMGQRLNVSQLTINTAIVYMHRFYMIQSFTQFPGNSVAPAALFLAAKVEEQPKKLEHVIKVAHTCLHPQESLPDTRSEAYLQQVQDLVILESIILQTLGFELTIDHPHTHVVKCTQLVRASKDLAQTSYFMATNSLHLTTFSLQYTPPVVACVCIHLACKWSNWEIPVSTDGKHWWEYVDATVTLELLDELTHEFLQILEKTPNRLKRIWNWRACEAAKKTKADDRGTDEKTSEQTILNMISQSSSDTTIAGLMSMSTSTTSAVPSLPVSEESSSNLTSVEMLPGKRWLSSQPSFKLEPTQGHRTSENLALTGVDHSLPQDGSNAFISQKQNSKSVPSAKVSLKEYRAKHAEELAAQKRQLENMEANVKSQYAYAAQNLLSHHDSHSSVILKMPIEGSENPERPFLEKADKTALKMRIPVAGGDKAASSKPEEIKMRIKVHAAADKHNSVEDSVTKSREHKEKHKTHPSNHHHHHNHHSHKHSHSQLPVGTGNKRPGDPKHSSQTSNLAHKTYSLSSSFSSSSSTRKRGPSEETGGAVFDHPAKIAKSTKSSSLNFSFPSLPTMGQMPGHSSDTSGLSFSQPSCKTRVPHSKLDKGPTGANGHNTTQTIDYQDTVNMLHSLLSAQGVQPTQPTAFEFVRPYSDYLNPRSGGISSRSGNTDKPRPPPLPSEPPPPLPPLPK
CDK7/Cyclin H/MAT1 kinase, sequence (P50613 whole entry): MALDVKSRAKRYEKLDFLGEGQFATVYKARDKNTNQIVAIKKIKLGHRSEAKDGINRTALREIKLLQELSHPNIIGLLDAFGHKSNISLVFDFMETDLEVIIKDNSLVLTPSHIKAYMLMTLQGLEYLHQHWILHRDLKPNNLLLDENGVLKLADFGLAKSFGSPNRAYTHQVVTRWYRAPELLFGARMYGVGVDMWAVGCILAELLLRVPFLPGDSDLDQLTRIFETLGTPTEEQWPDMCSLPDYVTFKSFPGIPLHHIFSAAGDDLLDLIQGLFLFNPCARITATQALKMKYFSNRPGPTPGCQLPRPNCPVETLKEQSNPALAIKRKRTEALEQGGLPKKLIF
CDK7/Cyclin H/MAT1 kinase, sequence (P51946 whole entry partner): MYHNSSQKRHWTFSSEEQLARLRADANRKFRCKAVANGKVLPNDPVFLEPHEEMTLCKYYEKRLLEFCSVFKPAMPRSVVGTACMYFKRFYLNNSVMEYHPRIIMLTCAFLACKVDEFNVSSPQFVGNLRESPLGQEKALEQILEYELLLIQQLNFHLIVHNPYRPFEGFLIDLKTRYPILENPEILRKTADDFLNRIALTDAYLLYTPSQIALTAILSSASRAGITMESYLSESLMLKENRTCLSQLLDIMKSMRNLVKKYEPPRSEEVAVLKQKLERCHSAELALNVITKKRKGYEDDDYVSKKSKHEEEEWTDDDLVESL
CDK7/Cyclin H/MAT1 kinase, sequence (P51948 whole entry partner): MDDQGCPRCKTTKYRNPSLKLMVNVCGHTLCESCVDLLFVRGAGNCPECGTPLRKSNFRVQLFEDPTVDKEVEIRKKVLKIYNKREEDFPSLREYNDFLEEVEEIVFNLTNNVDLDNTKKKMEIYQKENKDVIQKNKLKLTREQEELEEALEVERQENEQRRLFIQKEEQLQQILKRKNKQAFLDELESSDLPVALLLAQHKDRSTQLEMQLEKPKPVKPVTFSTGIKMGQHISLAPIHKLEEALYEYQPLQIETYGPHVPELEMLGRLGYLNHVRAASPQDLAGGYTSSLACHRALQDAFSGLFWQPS
CDK12 (aa686-1082)/Cyclin K, sequence (Q9NYV4 686-1082): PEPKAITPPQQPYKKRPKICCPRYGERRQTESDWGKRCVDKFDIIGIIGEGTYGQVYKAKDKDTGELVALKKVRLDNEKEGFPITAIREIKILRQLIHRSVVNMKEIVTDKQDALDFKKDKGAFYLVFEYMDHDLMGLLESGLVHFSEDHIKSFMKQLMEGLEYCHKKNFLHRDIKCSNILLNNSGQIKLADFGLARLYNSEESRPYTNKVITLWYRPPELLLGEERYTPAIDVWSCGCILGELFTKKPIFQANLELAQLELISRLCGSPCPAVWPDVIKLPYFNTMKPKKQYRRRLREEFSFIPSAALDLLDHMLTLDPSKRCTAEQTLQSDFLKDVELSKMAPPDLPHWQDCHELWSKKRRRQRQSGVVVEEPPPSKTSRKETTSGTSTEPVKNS
CDK12 (aa686-1082)/Cyclin K, sequence (O75909 whole entry partner, the tested form may be a part): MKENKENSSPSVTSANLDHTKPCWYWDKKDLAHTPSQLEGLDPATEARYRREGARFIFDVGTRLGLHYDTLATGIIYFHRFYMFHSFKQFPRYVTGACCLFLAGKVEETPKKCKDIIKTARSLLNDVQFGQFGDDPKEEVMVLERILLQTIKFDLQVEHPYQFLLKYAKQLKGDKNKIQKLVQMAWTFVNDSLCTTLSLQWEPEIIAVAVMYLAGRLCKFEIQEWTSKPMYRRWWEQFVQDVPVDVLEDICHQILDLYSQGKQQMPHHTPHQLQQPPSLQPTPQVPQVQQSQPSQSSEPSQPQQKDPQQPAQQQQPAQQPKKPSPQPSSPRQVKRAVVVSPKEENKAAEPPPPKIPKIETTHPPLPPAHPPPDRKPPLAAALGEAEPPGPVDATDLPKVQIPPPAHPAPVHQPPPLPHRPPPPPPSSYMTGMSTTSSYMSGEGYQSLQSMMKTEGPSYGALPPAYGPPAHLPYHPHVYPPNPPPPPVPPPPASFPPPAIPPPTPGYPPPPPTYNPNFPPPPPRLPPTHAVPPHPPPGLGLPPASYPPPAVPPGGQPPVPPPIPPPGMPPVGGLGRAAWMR

| Structure (SMILES) | pIC50 [1] | pIC50 (CDK2/Cyclin El) | pIC50 (CDK9/Cyclin Tl) | pIC50 [2] |
| --- | --- | --- | --- | --- |
| O=C1CCCCN1c1ccc2c(-c3nc(N[C@H]4CCCNC4)ncc3C(F)(F)F)c[nH]c2c1Br [Example T-03] | > 7.30 | < 6.30 | < 6.30 | < 6.30 |
| O=C1CCCN1c1ccc2c(-c3nc(N[C@H]4CCCNC4)ncc3C(F)(F)F)c[nH]c2c1Br [Example T-04] | > 7.30 | < 6.30 | < 6.30 | < 6.30 |
| CN1CCC[C@H](Nc2ncc(C(F)(F)F)c(-c3c[nH]c4cc(N5CCCC5=O)ccc34)n2)C1 [Example T-05] | > 7.30 | < 6.30 | < 6.30 | < 6.30 |
| O=C1OCCCN1c1ccc2c(-c3nc(N[C@H]4CCCNC4)ncc3C(F)(F)F)c[nH]c2c1Br [Example T-06] | > 7.30 | < 6.30 | < 6.30 | < 6.30 |
| CC1(C)COC(Nc2ccc3c(-c4nc(N[C@H]5CCCNC5)ncc4C(F)(F)F)c[nH]c3c2Br)=N1 [Example T-07] | > 7.30 | < 6.30 | < 6.30 | < 6.30 |
| O=C(Nc1ccc2c(-c3nc(N[C@H]4CCCNC4)ncc3C(F)(F)F)c[nH]c2c1Br)C1CC1 [Example T-08] | > 7.30 | < 6.30 | < 6.30 | < 6.30 |
| CC(=O)Nc1ccc2c(-c3nc(N[C@H]4CCCNC4)ncc3C(F)(F)F)c[nH]c2c1Br [Example T-09] | > 7.30 | < 6.30 | < 6.30 | < 6.30 |
| CC(=O)Nc1ccc2c(-c3nc(N[C@H]4CCCNC4)ncc3C(F)(F)F)c[nH]c2c1 [Example T-10] | > 7.30 | < 6.30 | < 6.30 | < 6.30 |
| O=C(Nc1ccc2c(-c3nc(N[C@H]4CCCNC4)ncc3C(F)(F)F)c[nH]c2c1)C1CC1 [Example T-11] | > 7.30 | < 6.30 | < 6.30 | < 6.30 |
| O=C1OCCN1c1ccc2c(-c3nc(N[C@H]4CCCNC4)ncc3C(F)(F)F)c[nH]c2c1Br [Example T-12] | > 7.30 | < 6.30 | < 6.30 | < 6.30 |
| O=C1CCCN1c1ccc2c(-c3nc(N[C@H]4CCCNC4)ncc3C(F)(F)F)c[nH]c2c1 [Example T-13] | > 7.30 | < 6.30 | < 6.30 | < 6.30 |
| COC(=O)Nc1ccc2c(-c3nc(N[C@H]4CCCNC4)ncc3C(F)(F)F)c[nH]c2c1P(C)(C)=O [Example T-14] | > 7.30 | < 6.30 | < 6.30 | < 6.30 |
| CC(=O)Nc1ccc2c(-c3nc(N[C@H]4CCCNC4)ncc3C(F)(F)F)c[nH]c2c1P(C)(C)=O [Example T-15] | > 7.30 | < 6.30 | < 6.30 | < 6.30 |
| COC(=O)Nc1ccc2c(-c3nc(N[C@H]4CCCNC4)ncc3C(F)(F)F)c[nH]c2c1 [Example T-16] | > 7.30 | < 6.30 | < 6.30 | < 6.30 |
| O=C1CCN1c1ccc2c(-c3nc(N[C@H]4CCCNC4)ncc3C(F)(F)F)c[nH]c2c1Br [Example T-18] | > 7.30 | < 6.30 | < 6.30 | < 6.30 |
| COC(=O)Nc1ccc2c(-c3nc(NC4CC5(CNC5)C4)ncc3C(F)(F)F)c[nH]c2c1Br [Example T-19] | > 7.30 | < 6.30 | < 6.30 | < 6.30 |
| COC(=O)Nc1ccc2c(-c3nc(N[C@H]4CCC[C@H](N)C4)ncc3C(F)(F)F)c[nH]c2c1Br [Example T-20] | 6.30 to 7.30 | < 6.30 | < 6.30 | < 6.30 |
| COC(=O)Nc1ccc2c(-c3nc(N[C@H]4CCC[C@@H](N)C4)ncc3C(F)(F)F)c[nH]c2c1Br [Example T-21] | 6.30 to 7.30 | < 6.30 | < 6.30 | < 6.30 |
| COC(=O)Nc1ccc2c(-c3nc(N[C@@H]4CCC[C@H](N)C4)ncc3C(F)(F)F)c[nH]c2c1Br [Example T-22] | 6.30 to 7.30 | < 6.30 | < 6.30 | < 6.30 |
| COC(=O)Nc1ccc2c(-c3nc(N[C@@H]4CCC[C@@H](N)C4)ncc3C(F)(F)F)c[nH]c2c1Br [Example T-23] | 6.30 to 7.30 | < 6.30 | < 6.30 | < 6.30 |
| COC(=O)Nc1ccc2c(-c3nc(N[C@H]4[C@@H]5CNC[C@@H]54)ncc3C(F)(F)F)c[nH]c2c1Br [Example T-24] | > 7.30 | < 6.30 | < 6.30 | < 6.30 |

| Structure (SMILES) | pIC50 [1] | pIC50 (CDK2/Cyclin El) | pIC50 (CDK9/Cyclin Tl) | pIC50 [2] |
| --- | --- | --- | --- | --- |
| COC(=O)Nc1ccc2c(-c3nc(N[C@@H]4[C@@H]5CNC[C@@H]54)ncc3C(F)(F)F)c[nH]c2c1Br [Example T-25] | 6.30 to 7.30 | < 6.30 | < 6.30 | < 6.30 |
| COC(=O)Nc1ccc2c(-c3nc(NC4C5CCNC54)ncc3C(F)(F)F)c[nH]c2c1Br (centres unmarked) [Example T-26] | 6.30 to 7.30 | < 6.30 | < 6.30 | < 6.30 |
| COC(=O)Nc1ccc2c(-c3nc(N[C@H]4CCCNC4)ncc3C(F)(F)F)c[nH]c2c1C#N [Example T-27] | > 7.30 | < 6.30 | < 6.30 | < 6.30 |
| COC(=O)Nc1ccc2c(-c3nc(NC4CC5CNCC5C4)ncc3C(F)(F)F)c[nH]c2c1Br (centres unmarked) [Example T-28] | 6.30 to 7.30 | < 6.30 | < 6.30 | < 6.30 |
| COC(=O)Nc1ccc2c(-c3nc(N[C@H]4CCC[C@@H](O)C4)ncc3C(F)(F)F)c[nH]c2c1Br [Example T-29] | < 6.30 | < 6.30 | < 6.30 | < 6.30 |
| COC(=O)Nc1ccc2c(-c3nc(NC4CC5(CC(N)C5)C4)ncc3C(F)(F)F)c[nH]c2c1Br (centres unmarked) [Example T-31] | > 7.30 | < 6.30 | < 6.30 | < 6.30 |
| COC(=O)Nc1ccc2c(-c3nc(N[C@H]4CCC(C)(C)NC4)ncc3C(F)(F)F)c[nH]c2c1C(F)(F)F [Example T-35] | > 7.30 | < 6.30 | < 6.30 | < 6.30 |
| CCOC(=O)Nc1ccc2c(-c3nc(N[C@@H]4CNCC(C)(C)C4)ncc3C(F)(F)F)c[nH]c2c1Br [Example T-43] | > 7.30 | < 6.30 | < 6.30 | < 6.30 |
| CC(C)OC(=O)Nc1ccc2c(-c3nc(N[C@H]4CCCNC4)ncc3C(F)(F)F)c[nH]c2c1Br [Example T-44] | > 7.30 | < 6.30 | < 6.30 | < 6.30 |
| COC(=O)Nc1ccc2c(-c3nc(N[C@H]4CCCNC4)ncc3C(F)(F)F)c[nH]c2c1-c1ccccc1 [Example T-60] | > 7.30 | < 6.30 | < 6.30 | < 6.30 |
| COC(=O)Nc1ccc2c(-c3nc(N[C@H]4CCCNC4)ncc3C(F)(F)F)c[nH]c2c1S(=O)(=O)C(C)C [Example T-63] | > 7.30 | < 6.30 | < 6.30 | < 6.30 |
| COC(=O)Nc1ccc2c(-c3nc(N[C@H]4CCC(C)(C)NC4)ncc3C(F)(F)F)c[nH]c2c1S(=O)(=O)C(C)C [Example T-64] | > 7.30 | < 6.30 | < 6.30 | < 6.30 |
| COC(=O)Nc1ccc2c(-c3nc(N[C@H]4CCCNC4)ncc3C(F)(F)F)c[nH]c2c1[S+]([O-])C(C)C (some centres unmarked) [Example T-65] | > 7.30 | < 6.30 | < 6.30 | < 6.30 |
| COC(=O)Nc1ccc2c(-c3nc(N[C@H]4CCCNC4)ncc3C(F)(F)F)c[nH]c2c1SC(C)C [Example T-66] | > 7.30 | < 6.30 | < 6.30 | < 6.30 |
| COC(=O)Nc1ccc2c(-c3nc(N[C@H]4CCC[C@@H]4N)ncc3C(F)(F)F)c[nH]c2c1Br [Example T-67] | > 7.30 | < 6.30 | < 6.30 | < 6.30 |
| COC(=O)Nc1ccc2c(-c3nc(N[C@H]4CCCNC4)ncc3C(F)(F)F)c[nH]c2c1-c1cnn(C)c1 [Example T-68] | > 7.30 | < 6.30 | < 6.30 | < 6.30 |
| COC(=O)Nc1ccc2c(-c3nc(N[C@H]4CCCNC4)ncc3C(F)(F)F)c[nH]c2c1C(C)C [Example T-69] | > 7.30 | < 6.30 | < 6.30 | < 6.30 |
| COC(=O)Nc1ccc2c(-c3nc(N[C@H]4CCCNC4)ncc3Br)c[nH]c2c1Br [Example T-75] | > 7.30 | < 6.30 | < 6.30 | < 6.30 |
| COC(=O)Nc1ccc2c(-c3nc(N[C@H]4CCC(C)(C)NC4)ncc3C(F)(F)F)c[nH]c2c1Cl [Example T-80] | > 7.30 | < 6.30 | < 6.30 | < 6.30 |
| CCOC(=O)Nc1ccc2c(-c3nc(N[C@H]4CCC(C)(C)NC4)ncc3C(F)(F)F)c[nH]c2c1Cl [Example T-82] | > 7.30 | < 6.30 | < 6.30 | < 6.30 |
